The text below walks through data of ChEMBL document CHEMBL1156091, “Stereoselective total synthesis of a potent natural antifungal compound (6S)-5,6,dihydro-6-[(2R)-2-hydroxy-6-phenyl hexyl]-2H-pyran-2-one” (2009).

The subject of this test is Cladosporium cucumerinum. The experiment in a line: Antifungal activity against phytopathogenic Cladosporium cucumerinum by bioautographic TLC assay. The format is functional.

As for `Clc1ccc(COC(Cn2ccnc2)c2ccc(Cl)cc2Cl)c(Cl)c1` (configuration not stated) [MICONAZOLE], the MIC turned out to be 1 µg. Regarding `O=C1C=CC[C@@H](C[C@H](O)CCCCc2ccccc2)O1`, the MIC came to 1 µg.
